Laboratory results as given in US4225610A, “Immunoactivators derived from amino thiazoles” (Pierre Fabre, S.A., priority 1977, dated 1980).
Where “and” joins values, the source holds several entries; their conditions need not be identical. Identical values can stand only once. Entries after “also recorded” stand apart in the source; their conditions may differ. Like-named read-outs stand apart in the source and are kept apart here.

What was measured:
in vivo = assay type: in vivo; settings: mouse, in vivo, po; mice, per os, single administration, 7 days
From the text: (§1) The acute toxicity after a single administration of the products per os was studied in mice.
(§2) The compounds were placed in suspension in a mixture of Tween 80™ and distilled water. […] Exper.

mice = test: in vivo; assay type: in vivo
From the text: as §1, §2

[1] = test system: Delayed Hypersensitivity Pleurisy to Bordetella pertussis; test: Pleurisy of delayed hypersensitivity to Bordetella pertussis in rats after chronic treatment; assay type: in vivo; settings: for Action on the number of mononuclears / Action on the number of polynuclears / Action on the total number of leukocytes / Action on the volume of exudate: 5 mg/kg p.o.; for Delayed hypersensitivity pleural inflammation (in words) / Action compared with levamisole (in words): orally, chronic treatment, 5 mg/kg/administration; for Action compared with levamisole (in words): both treatment procedures
Experimental: II--Action on Pleurisy of Delayed Hypersensitivity to Bordetella pertussis in Rats After Chronic Treatment […]
Male rats weighing 280-320 g are used. The suspension of Bordetella pertussis used is the pertussis vaccine of the Pasteur Institute (5×10^9 killed bacilli per ml). The Bordetella pertussis suspension is mixed (V/V: 50/50) with Freund's complete adjuvant. 0.2 ml of this mixture is injected intramuscularly into each thigh of the rat.
6 days later, 0.1 ml of the Bordetella pertussis suspension is injected into the pleural cavity. 48 hours later, the pleural exudate formed is removed and measured. The total number of leukocytes and the number of mononuclears and polynuclears of the exudate are determined.
The products studied were administered chronically in accordance with two procedures:
Procedure 1: The treatment commences on the day of the sensitization and continues at the rate of one administration per day until the challenge injection. On the day of the latter the compounds are given twice: one administration before and one after the intrapleural injection of the antigen. The animals are treated a last time 24 hours later.
Procedure 2: The treatment commences three weeks before the sensitization. During these three weeks, the products are given at the rate of 5 times per week. The treatment is then continued as indicated above in Procedure 1.

[2] = test system: cutaneous delayed hypersensitivity reaction to PPD; assay type: in vivo, albino guinea pigs
[3] = Chronic toxicity per os for two months in rats; settings: rat, in vivo, po, read-out: Dose not resulting in any toxic phenomenon
[4] = 1000 mg/kg per os, 5 mice per lot
[5] = 200 mg/kg per os, 5 mice per lot

CCOC(=O)Nc1nc(-c2ccccc2)cs1 [F 1658, 4-phenyl 2-(ethoxycarboxamido) thiazole]
Solubility in DMA (Solubility): 25%
Solubility in methyl pyrrolidone (Solubility): 25%
Solubility in water (Solubility): insoluble

CCCCCCCCCCCC(=O)Nc1nc(-c2ccccc2)cs1 [F 1655]
LD50 at 168 h (in vivo): > 1000 mg/kg
Mortality at the end of 7 days (mice; [4]): 0
Solubility in DMA (Solubility): 25%
Solubility in methyl pyrrolidone (Solubility): 25%
Solubility in water (Solubility): insoluble

CCCCCCCCCCCCCCCCCC(=O)Nc1nc(-c2ccccc2)cs1 [F 1656, 4-phenyl 2-stearamido thiazole]
LD50 at 168 h (in vivo): > 1000 mg/kg
Mortality at the end of 7 days (mice; [4]): 0
Solubility in DMA (Solubility): 20%
Solubility in methyl pyrrolidone (Solubility): 20%
Solubility in water (Solubility): insoluble

O=C(O)CCC(=O)Nc1nc(-c2ccccc2)cs1 [F 1657, N(4-phenyl 2-thiazolyl) succinamic acid]
LD50 at 168 h (in vivo): > 1000 mg/kg
Mortality at the end of 7 days (mice; [4]): 0
Solubility in DMA (Solubility): 20%
Solubility in methyl pyrrolidone (Solubility): 25%
Solubility in water (Solubility): insoluble

O=C(O)CCC(=O)Nc1nc(-c2ccc(Cl)cc2)cs1 [F 1683, N(4-parachlorophenyl 2-thiazolyl) succinamic acid]
LD50 at 168 h (in vivo): > 1000 mg/kg
Mortality at the end of 7 days (mice; [4]): 0
Solubility in DMA (Solubility): 20%
Solubility in methyl pyrrolidone (Solubility): 20%
Solubility in water (Solubility): insoluble

Nc1nc(-c2ccccc2)cs1 [F 1653, 4-phenyl 2-amino thiazole]
LD50 at 168 h (in vivo): 140 mg/kg
Mortality at the end of 7 days (mice; 100 mg/kg per os, 5 mice per lot): 0
Mortality at the end of 7 days (mice; [5]): 5
Solubility in dimethyl pyrrolidone (Solubility; dimethyl pyrrolidone): 20%
Solubility in ethanol (Solubility): 1%
Solubility in water (Solubility): insoluble

c1ccc([C@H]2CN3CCSC3=N2)cc1 [Levamisole, L-tetramisole, reference compound]
Action on the number of mononuclears ([1]; Treatment procedure 1): -11%
Action on the number of polynuclears ([1]; Treatment procedure 1): -9%
Action on the total number of leukocytes ([1]; Treatment procedure 1): -10%
Action on the volume of exudate ([1]; Treatment procedure 1): -22%
Action on the number of mononuclears ([1]; Treatment procedure 2): -17%
Action on the number of polynuclears ([1]; Treatment procedure 2): -7%
Action on the total number of leukocytes ([1]; Treatment procedure 2): -13%
Action on the volume of exudate ([1]; Treatment procedure 2): -23%
Effect on the response to PPD (in words) ([2]; guinea pig, in vivo): to a definitely lesser degree stimulate the response; also recorded: do not modify it significantly any longer

O=C(Nc1nc(-c2ccc(Cl)cc2)cs1)Oc1ccccc1 [F 1687]
LD50 at 168 h (in vivo): > 1000 mg/kg
Mortality at the end of 7 days (mice; [4]): 0
Solubility in DMA (Solubility): 5%
Solubility in methyl pyrrolidone (Solubility): 5%
Solubility in water (Solubility): insoluble

O=C(Nc1nc(-c2ccccc2)cs1)Oc1ccccc1 [F 1659, 4-phenyl 2-phenoxy carbamoyl thiazole]
LD50 at 168 h (in vivo): > 1000 mg/kg
Mortality at the end of 7 days (mice; [4]): 0
Solubility in DMA (Solubility): 4%
Solubility in methyl pyrrolidone (Solubility): 3%
Solubility in water (Solubility): insoluble

O=C(Nc1nc(-c2ccccc2)cs1)c1cccnc1 [F 1684, N(4-phenyl 2-thiazolyl) nicotinamide]
LD50 at 168 h (in vivo): > 1000 mg/kg
Mortality at the end of 7 days (mice; [4]): 0
Solubility in DMA (Solubility): 5%
Solubility in methyl pyrrolidone (Solubility): 5%
Solubility in water (Solubility): insoluble

O=C(Nc1nc(-c2ccc(Cl)cc2)cs1)OCC(Cl)(Cl)Cl [F 1660, 4-parachlorophenyl 2-(2'-2'-2'-trichloroethoxycarbamido) thiazole]
LD50 at 168 h (in vivo): > 1000 mg/kg
Mortality at the end of 7 days (mice; [4]): 0
Solubility in DMA (Solubility): 20%
Solubility in methyl pyrrolidone (Solubility): 20%
Solubility in water (Solubility): insoluble

O=C(Nc1nc(-c2ccc(Cl)cc2)cs1)c1cccnc1 [F 1685, N(4-parachlorophenyl 2-thiazolyl) nicotinamide]
LD50 at 168 h (in vivo): > 1000 mg/kg
Mortality at the end of 7 days (mice; [4]): 0
Solubility in DMA (Solubility): 20%
Solubility in methyl pyrrolidone (Solubility): 20%
Solubility in water (Solubility): insoluble

O=C(Nc1nc(-c2ccccc2)cs1)OCC(Cl)(Cl)Cl [F 1686, 4-phenyl-2-(2'-2'-2'-trichloroethoxycarboxamido) thiazole]
Action on the number of mononuclears ([1]; Treatment procedure 1): -21%
Action on the number of polynuclears ([1]; Treatment procedure 1): -16%
Action on the total number of leukocytes ([1]; Treatment procedure 1): -19%
Action on the volume of exudate ([1]; Treatment procedure 1): -35%
Action on the number of mononuclears ([1]; Treatment procedure 2): -29%
Action on the number of polynuclears ([1]; Treatment procedure 2): -6%
Action on the total number of leukocytes ([1]; Treatment procedure 2): -22%
Action on the volume of exudate ([1]; Treatment procedure 2, 5 mg/kg): -50% and -42%
Delayed hypersensitivity pleural inflammation (in words) [1]: reduce the delayed hypersensitivity pleural inflammation
Action compared with levamisole (in words) [1]: superior to that of levamisole
NOAEL at 1460 h [3]: ≤ 30 mg/kg/day
Effect on the response to PPD (in words) ([2]; […], response of low intensity in controls (two to three weeks)): stimulate the response
Effect on the response to PPD (in words) ([2]; after 5 and 6 weeks): do not modify it significantly any longer
Stimulation of the reaction to the PPD (in words) ([2]; dependence on immune state): does not stimulate the reaction to the PPD except when the guinea pigs are in a state of hypoimmunization
LD50 at 168 h (in vivo): > 1000 mg/kg
Mortality at the end of 7 days (mice; 1000 mg/kg per os, 10 mice per lot): 0
Solubility in DMA (Solubility): 25%
Solubility in ethanol (Solubility): 3%
Solubility in methyl pyrrolidone (Solubility): 20%
Solubility in water (Solubility): insoluble

Nc1nc(-c2ccc(Cl)cc2)cs1 [F 1654, 4-Parachloro-phenyl 2-amino thiazole]
Action on the volume of exudate ([1]; Treatment procedure 2): -41%
Delayed hypersensitivity pleural inflammation (in words) [1]: reduce the delayed hypersensitivity pleural inflammation
Action compared with levamisole (in words) [1]: superior to that of levamisole
LD50 at 168 h (in vivo): 300 mg/kg
Mortality at the end of 7 days (mice; [5]): 0
Mortality at the end of 7 days (mice; 300 mg/kg per os, 5 mice per lot): 3
Mortality at the end of 7 days (mice; 500 mg/kg per os, 5 mice per lot): 5
Solubility in ethanol (Solubility): 15%
Solubility in water (Solubility): insoluble
